Data as given in patent publication US20210382058A1, “PATIENT SELECTION FOR TREATMENT OF MYC POSITIVE CANCERS WITH INDENOISOQUINOLINES” (Purdue Research Foundation, priority 2020, published 2021).
Where two headings read alike, the source gives them in different places.

How the values were obtained:
human topoisomerase I = molecular target: T1, human topoisomerase I (Homo sapiens, UniProt P11387); details: relative topoisomerase I inhibition levels, previously determined, six levels (0 - 5, +++++ = 5); cited from earlier work
T1 sequence (P11387 1-765): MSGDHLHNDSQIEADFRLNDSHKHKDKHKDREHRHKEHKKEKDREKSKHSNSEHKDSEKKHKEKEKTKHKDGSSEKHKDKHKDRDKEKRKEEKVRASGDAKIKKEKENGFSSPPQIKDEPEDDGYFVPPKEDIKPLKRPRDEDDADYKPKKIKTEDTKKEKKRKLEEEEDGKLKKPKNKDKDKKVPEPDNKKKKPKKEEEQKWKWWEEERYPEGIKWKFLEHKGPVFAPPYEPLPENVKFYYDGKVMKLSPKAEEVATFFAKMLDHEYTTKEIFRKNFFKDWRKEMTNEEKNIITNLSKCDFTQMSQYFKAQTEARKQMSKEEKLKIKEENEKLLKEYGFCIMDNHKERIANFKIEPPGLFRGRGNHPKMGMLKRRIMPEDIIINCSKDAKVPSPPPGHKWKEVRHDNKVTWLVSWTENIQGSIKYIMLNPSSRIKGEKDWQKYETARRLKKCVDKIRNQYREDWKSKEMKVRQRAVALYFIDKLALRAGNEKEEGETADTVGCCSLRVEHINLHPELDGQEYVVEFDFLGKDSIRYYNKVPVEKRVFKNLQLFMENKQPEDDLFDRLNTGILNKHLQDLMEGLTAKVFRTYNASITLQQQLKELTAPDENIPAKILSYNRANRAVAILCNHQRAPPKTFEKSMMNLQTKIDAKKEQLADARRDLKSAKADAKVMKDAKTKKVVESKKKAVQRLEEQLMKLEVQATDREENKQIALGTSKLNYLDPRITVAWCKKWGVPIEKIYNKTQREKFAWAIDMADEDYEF

NCI-60 cancer cell lines = experiment: NCI-60 cancer cell line drug screen (GI50, MGM); assay type: cell-based, human; details: Homo sapiens; for GI50: read-out: Antiproliferative Activities [GI50 (μM)]
Procedure: Cancer cells were incubated with the test compounds at five concentrations ranging from 100 μM to 10 nM for 48 h. […] The approximate average of GI50 values across the entire panel of NCI-60 cancer cell lines for each compound was recorded as the MGM value.

In the case of `CNCCCn1c2c(c3ccc([N+](=O)[O-])cc3c1=O)C(=O)c1cc(OC)cnc1-2` [Compound 10], the “Top1 Inhibiton” value (human topoisomerase I) is given as “+++ (strong inhibition, +++, MYC expression inhibited at 0.5 to 1.0 μM)”, the GI50 (NCI-60 cancer cell lines; 786-0, Renal Cancer, 786-0) is given as 0.04 µM and the GI50 (NCI-60 cancer cell lines; A498, Renal Cancer, A498) is given as 0.03 µM. The GI50 (NCI-60 cancer cell lines; A549, Non-Small Cell Lung Cancer, A549/ATCC) was 0.07 µM, the GI50 (NCI-60 cancer cell lines; ACHN, Renal Cancer, ACHN) was 0.04 µM and the GI50 (NCI-60 cancer cell lines; BT-549, Breast Cancer, BT-549) was 0.37 µM. The GI50 (NCI-60 cancer cell lines; CAKI-1, Renal Cancer, CAKI-1) was 0.03 µM, the GI50 (NCI-60 cancer cell lines; CCRF-CEM, Leukemia, CCRF-CEM) was 0.04 µM and the GI50 (NCI-60 cancer cell lines; COLO 205, Colon Cancer, COLO 205) was 0.06 µM. For the same compound, the GI50 (NCI-60 cancer cell lines; DU-145, Prostate Cancer, DU-145) was 0.05 µM, the GI50 (NCI-60 cancer cell lines; EKVX, Non-Small Cell Lung Cancer, EKVX) was 0.27 µM and the GI50 (NCI-60 cancer cell lines; HCC 2998, Colon Cancer, HCC-2998) was 0.2 µM. It also gave a GI50 (NCI-60 cancer cell lines; HCT-15, Colon Cancer, HCT-15) of 0.12 µM, a GI50 (NCI-60 cancer cell lines; HCT-116, Colon Cancer, HCT-116) of 0.03 µM and a GI50 (NCI-60 cancer cell lines; HL-60, Leukemia, HL-60(TB)) of 0.04 µM. It also gave a GI50 (NCI-60 cancer cell lines; HOP-92, Non-Small Cell Lung Cancer, HOP-92) of 0.24 µM, a GI50 (NCI-60 cancer cell lines; HT-29, Colon Cancer, HT29) of 0.06 µM and a GI50 (NCI-60 cancer cell lines; Hs-578T, Breast Cancer, HS 578T) of 1.17 µM. For the same compound, the GI50 (NCI-60 cancer cell lines; IGROV-1, Ovarian Cancer, IGROV1) was 0.21 µM, the GI50 (NCI-60 cancer cell lines; K562, Leukemia, K-562) was 0.04 µM and the GI50 (NCI-60 cancer cell lines; KM12, Colon Cancer, KM12) was 0.16 µM. It also gave a GI50 (NCI-60 cancer cell lines; LOX IMVI, Melanoma, LOX IMVI) of 0.03 µM, a GI50 (NCI-60 cancer cell lines; Leukemia, SR) of 0.01 µM and a GI50 (NCI-60 cancer cell lines; MCF7, Breast Cancer, MCF7) of 0.01 µM. The GI50 (NCI-60 cancer cell lines; MDA-MB-231, Breast Cancer, MDA-MB-231/ATCC) was 0.27 µM, the GI50 (NCI-60 cancer cell lines; MDA-MB-435, Melanoma, MDA-MB-435) was 0.15 µM and the GI50 (NCI-60 cancer cell lines; MDA-MB-468, Breast Cancer, MDA-MB-468) was 0.03 µM. For the same compound, the GI50 (NCI-60 cancer cell lines; MOLT-4, Leukemia, MOLT-4) was 0.03 µM, the GI50 (NCI-60 cancer cell lines; Malme-3M, Melanoma, MALME-3M) was 0.18 µM and the GI50 (NCI-60 cancer cell lines; Melanoma, M14) was 0.04 µM. The GI50 (NCI-60 cancer cell lines; NCI-H23, Non-Small Cell Lung Cancer, NCI-H23) was 0.04 µM, the GI50 (NCI-60 cancer cell lines; NCI-H226, Non-Small Cell Lung Cancer, NCI-H226) was 0.09 µM and the GI50 (NCI-60 cancer cell lines; NCI-H322M, Non-Small Cell Lung Cancer, NCI-H322M) was 0.16 µM. It also gave a GI50 (NCI-60 cancer cell lines; NCI-H460, Non-Small Cell Lung Cancer, NCI-H460) of 0.02 µM, a GI50 (NCI-60 cancer cell lines; NCI-H522, Non-Small Cell Lung Cancer, NCI-H522) of 0.08 µM and a GI50 (NCI-60 cancer cell lines; OVCAR-3, Ovarian Cancer, OVCAR-3) of 0.17 µM. For the same compound, the GI50 (NCI-60 cancer cell lines; OVCAR-4, Ovarian Cancer, OVCAR-4) was 0.17 µM, the GI50 (NCI-60 cancer cell lines; OVCAR-5, Ovarian Cancer, OVCAR-5) was 0.14 µM and the GI50 (NCI-60 cancer cell lines; OVCAR-8, Ovarian Cancer, OVCAR-8) was 0.09 µM. For the same compound, the GI50 (NCI-60 cancer cell lines; Ovarian Cancer, NCl/ADR-RES) was 0.06 µM, the GI50 (NCI-60 cancer cell lines; Prostate Cancer, PC-3) was 0.13 µM and the GI50 (NCI-60 cancer cell lines; RPMI-8226, Leukemia, RPMI-8226) was 0.08 µM. For the same compound, the GI50 (NCI-60 cancer cell lines; RXF 393, Renal Cancer, RXF 393) was 0.07 µM, the GI50 (NCI-60 cancer cell lines; Renal Cancer, U0-31) was 0.03 µM and the GI50 (NCI-60 cancer cell lines; SF-268, CNS Cancer, SF-268) was 0.07 µM. The GI50 (NCI-60 cancer cell lines; SF-295, CNS Cancer, SF-295) was 0.03 µM, the GI50 (NCI-60 cancer cell lines; SF-539, CNS Cancer, SF-539) was 0.05 µM and the GI50 (NCI-60 cancer cell lines; SK-MEL-2, Melanoma, SK-MEL-2) was 0.35 µM. It also gave a GI50 (NCI-60 cancer cell lines; SK-MEL-5, Melanoma, SK-MEL-5) of 0.11 µM, a GI50 (NCI-60 cancer cell lines; SK-MEL-28, Melanoma, SK-MEL-28) of 0.39 µM and a GI50 (NCI-60 cancer cell lines; SK-OV-3, Ovarian Cancer, SK-OV-3) of 0.06 µM. For the same compound, the GI50 (NCI-60 cancer cell lines; SN12C, Renal Cancer, SN12C) was 0.05 µM, the GI50 (NCI-60 cancer cell lines; SNB-19, CNS Cancer, SNB-19) was 0.04 µM and the GI50 (NCI-60 cancer cell lines; SNB-75, CNS Cancer, SNB-75) was 0.13 µM. The GI50 (NCI-60 cancer cell lines; SW-620, Colon Cancer, SW-620) was 0.03 µM, the GI50 (NCI-60 cancer cell lines; T47D, Breast Cancer, T-47D) was 0.03 µM and the GI50 (NCI-60 cancer cell lines; TK-10, Renal Cancer, TK-10) was 0.32 µM. For the same compound, the GI50 (NCI-60 cancer cell lines; U-251, CNS Cancer, U251) was 0.04 µM, the GI50 (NCI-60 cancer cell lines; UACC-257, Melanoma, UACC-257) was 0.18 µM and the mean GI50 across NCI-60 panel (MGM) (NCI-60 cancer cell lines; average of GI50 values across the entire panel of NCI-60 cancer cell lines) was 74 nM.
